Reference: BindingDB's records for doi:10.1016/j.ejmech.2016.12.029 (University of Auckland, 2017)

Assay: Inhibition of recombinant human IDO1 expressed in yeast assessed as yeast growth restoration after 40 to 45 hrs in presence of galactose

For `CN1CCN(C(CO)Cc2ccccc2)CC1` (stereo unspecified), the EC50 was 2000 nM.
